Patent US9114163B2, “Medication against breast cancer and related diseases” (MaBel GmbH, priority 2006, dated 2015)

How the values were obtained:
[1] = test system: normal or mastopathic breast tissue; experiment: Double blind clinical test, topical cream, patients with non-malign breast tissue; assay type: in vivo, human; settings: 4 patients with non-malign disease states, topical administration
Procedure: (§1) Double blind clinical tests were conducted with a group of 10 female patients. In this clinical testing, particular attention was paid to hormone receptor statuses of patients' target breast cancer tissue regarding progesterone receptor (PR) and in particular regarding estrogen receptor (ER); The cancers of the patients were assumed to be predominantly androgen receptor (AR) positive. Among this group, six patients had histologically ascertained malign breast carcinoma (C. mammae). […] In a sixth patient, the presence of a malign breast carcinoma was ascertained, but the amount of cancer tissue was too low to determine receptor status.
(§2) All 10 female patients were topically and locally treated using 4-hydroxytestosterone as active agent, by administering of a cream as described in Example 2 locally to target skin portions of the breasts. After continuing daily topical administration once a day during an administration period of 3 months, clinical investigations on therapeutic effects were performed.

[2] = test system: malign breast carcinoma (C. mammae); experiment: Double blind clinical test, topical cream, patients with malign breast carcinoma; assay type: in vivo, human; settings: for Clinical Remission: topical cream once a day
Procedure: as §1, §2
The results of the 6 patients having malign breast carcinoma are shown in the following Table 1, together with the receptor status determined for patient nos. 1 to 5.

[3] = test system: MCF-7 cells; experiment: Inhibition of MCF-7 cell proliferation (counting of vital cells); assay type: cell-based, human; settings: 10^-7 M, 10^-8 M, 10^-9 M; cell counts after 3, 6 and 9 days; compared with DHT and control
Procedure: MCF-7 cells were grown in RPMI 1640 medium at 37° C. to a cell number of about 1*10^5 cells/ml. Then, in quadruple identical MCF-7 cell samples, there were added either dihydrotestosterone (DHT) or 4-hydroxytestosterone (4-OHT), to obtain different concentrations thereof, namely 10^−7 M, 10^−8 M or 10^−9 M, and further growth of cells were determined by counting of vital cells. During the course of incubation at 37° C., cell counting were performed after 3, 6 and 9 days. For control, growth of MCF-7 cells were determined without addition of an active agent.
The results on an inhibition of MCF-7 cell proliferation are shown in FIGS. 1A, 1B and 1C for the compound concentrations of 10^−7 M, 10^−8 M and 10^−9 M of either DHT or 4-OHT, respectively, and compared with the control.

## C[C@]12CC[C@H]3[C@@H](CCC4=C(O)C(=O)CC[C@@]43C)[C@@H]1CC[C@@H]2O [4-hydroxytestosterone, 4,17β-dihydroxyandrost-4-ene-3-one]
[1]
  tissue reduction of normal or mastopathic appearing tissues: clear tendency for tissue reduction
[2]; Patient # 1, ER 0, PR 0, Her2neu 0, 3 months
  Clinical Remission: yes
[2]; Patient # 3, ER 0, PR 0, Her2neu 0, 3 months
  Clinical Remission: yes
[2]; Patient # 6, receptor status not determined, 3 months
  Clinical Remission: yes
[2]; clinical study, ER negative tumours, topical cream, 3 months
  treatment of ER negative cancer cells: effectively treated
[2]; clinical study, topical cream, 3 months
  efficacy in shrinking cancerous tissues: excellent efficacy in shrinking cancerous tissues
[2]; of 6 patients with malign breast carcinoma, those so far subjected to post-treatment investigation, 3 months topical
  patients with noticeable remission of breast cancer tissues as determined by mammography: three
[3]
  inhibitory effect on MCF-7 cell proliferation: significantly enhanced inhibitory effect
